One test concerns the target T1, RARβ (Homo sapiens, UniProt P10826).
T1 sequence (P10826 1-455): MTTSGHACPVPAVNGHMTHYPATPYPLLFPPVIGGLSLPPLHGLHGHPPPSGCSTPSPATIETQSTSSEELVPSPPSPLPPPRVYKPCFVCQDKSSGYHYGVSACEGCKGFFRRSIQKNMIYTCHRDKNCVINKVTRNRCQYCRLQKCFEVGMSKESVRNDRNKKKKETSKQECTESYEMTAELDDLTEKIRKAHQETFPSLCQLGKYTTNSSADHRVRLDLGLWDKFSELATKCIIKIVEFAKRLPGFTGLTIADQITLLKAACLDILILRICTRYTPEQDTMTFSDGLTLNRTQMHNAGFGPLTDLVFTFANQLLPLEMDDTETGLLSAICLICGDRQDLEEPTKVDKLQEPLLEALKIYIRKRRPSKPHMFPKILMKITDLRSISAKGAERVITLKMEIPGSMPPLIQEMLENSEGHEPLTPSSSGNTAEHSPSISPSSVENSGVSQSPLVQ
Kind of test: ligand binding assay, RARβ. Conditions: second entry of cell, read-out: RAR Bind. Ki (nM) β. The source says:
(§1) A holoreceptor transactivation assay and a ligand binding assay which measure the antagonist/agonist like activity of the compounds of the invention, or their ability to bind to the several retinoid receptor subtypes, respectively, are described in published PCT Application No. WO WO93/11755 (particularly on pages 30-33 and 37-41) published on Jun. 24, 1993, the specification of which is also incorporated herein by reference. A detailed experimental procedure for holoreceptor transactivations has been described by Heyman et al. Cell 68, 397-406, (1992); Allegretto et al. J. Biol. Chem. 268, 26625-26633, and Mangelsdorf et al. The Retinoids: Biology, Chemistry and Medicine, pp 319-349, Raven Press Ltd., New York, which are expressly incorporated herein by reference. The results obtained in this assay are expressed in EC50 numbers, as they are also in the chimeric receptor transactivation assay. The results of ligand binding assay are expressed in Kd numbers. (See Cheng et al. Biochemical Pharmacology Vol. 22 pp 3099-3108, expressly incorporated herein by reference.)

The target of another test is T2, RARγ (Homo sapiens, UniProt P13631).
T2 sequence (P13631 1-454): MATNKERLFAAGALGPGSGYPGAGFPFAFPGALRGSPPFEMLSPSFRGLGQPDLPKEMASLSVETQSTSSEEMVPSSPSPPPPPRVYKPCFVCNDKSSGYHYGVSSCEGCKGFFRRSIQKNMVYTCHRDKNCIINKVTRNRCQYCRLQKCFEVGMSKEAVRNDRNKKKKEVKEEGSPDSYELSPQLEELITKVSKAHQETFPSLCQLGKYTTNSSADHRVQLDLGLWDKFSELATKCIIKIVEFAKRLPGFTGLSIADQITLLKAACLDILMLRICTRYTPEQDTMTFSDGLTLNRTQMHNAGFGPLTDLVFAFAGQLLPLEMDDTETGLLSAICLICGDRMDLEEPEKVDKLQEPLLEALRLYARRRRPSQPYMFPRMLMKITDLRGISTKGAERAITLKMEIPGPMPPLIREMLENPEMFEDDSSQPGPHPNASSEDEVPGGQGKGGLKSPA
In words: ligand binding assay, RARγ. The following applies: second entry of cell, read-out: RAR Bind. Ki (nM) γ.
Text: as §1

The target of another test is T3, RXRβ (UniProt P28704).
T3 sequence (P28704 1-520): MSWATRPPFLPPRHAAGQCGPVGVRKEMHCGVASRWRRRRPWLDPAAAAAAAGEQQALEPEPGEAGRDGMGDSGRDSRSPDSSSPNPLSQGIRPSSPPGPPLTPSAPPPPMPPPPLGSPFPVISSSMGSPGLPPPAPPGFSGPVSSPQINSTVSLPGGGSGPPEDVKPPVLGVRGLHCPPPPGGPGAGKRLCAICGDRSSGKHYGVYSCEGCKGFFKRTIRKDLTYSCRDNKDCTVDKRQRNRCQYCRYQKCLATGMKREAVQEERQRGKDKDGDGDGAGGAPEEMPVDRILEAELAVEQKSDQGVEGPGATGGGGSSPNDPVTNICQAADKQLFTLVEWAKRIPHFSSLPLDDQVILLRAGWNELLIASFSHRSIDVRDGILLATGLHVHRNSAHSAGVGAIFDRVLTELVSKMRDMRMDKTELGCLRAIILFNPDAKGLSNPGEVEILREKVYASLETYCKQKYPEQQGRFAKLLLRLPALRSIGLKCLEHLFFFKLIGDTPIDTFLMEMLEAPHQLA
Kind of test: ligand binding assay, RXRβ. More on the design: other: RXRβ; last entry of cell. Conditions: last entry of cell, read-out: RXR Bind Ki (nM) β.
Text: as §1

A further test addresses T4, RXRγ (UniProt P28705).
T4 sequence (P28705 1-463): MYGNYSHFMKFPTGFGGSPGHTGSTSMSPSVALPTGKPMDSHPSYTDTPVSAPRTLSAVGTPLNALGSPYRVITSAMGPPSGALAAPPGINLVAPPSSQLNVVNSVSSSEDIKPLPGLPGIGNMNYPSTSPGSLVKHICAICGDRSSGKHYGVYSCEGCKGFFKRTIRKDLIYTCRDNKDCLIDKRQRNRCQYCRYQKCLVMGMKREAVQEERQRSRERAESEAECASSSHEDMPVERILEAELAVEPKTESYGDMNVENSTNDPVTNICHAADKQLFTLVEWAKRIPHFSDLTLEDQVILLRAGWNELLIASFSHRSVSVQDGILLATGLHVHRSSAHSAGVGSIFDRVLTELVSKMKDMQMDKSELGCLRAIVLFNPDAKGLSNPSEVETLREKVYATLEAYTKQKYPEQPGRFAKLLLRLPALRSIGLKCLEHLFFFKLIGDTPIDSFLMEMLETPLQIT
In words: receptor transactivation assay, RXRγ. It counts as cell-based. Also noted: RXR Trans; other: RXRγ; first entry of cell. The following applies: for EC50: first entry of cell, read-out: RXR Trans. EC50 (nM) γ; for RXR Trans. γ, number in parentheses after EC50: parenthesised number, not defined in the patent.
Text: as §1

Where only a bound is given, the exact number is not on record here.

Broadly, the Ki is a measure of affinity in units of concentration, obtained from inhibition or displacement. Broadly, the EC50 is the concentration that produces a half-maximal response. `CC(/C=C/[C@@H]1C[C@]1(C)c1cc(CC(C)(C)C)c2c(c1)C(C)(C)CO2)=C\C(=O)O` [Compound 12, 5-{(1S,2S) 2-[7-(2,2-Dimethyl-propyl)-3,3-dimethyl-2,3-dihydro-benzofuran-5-yl]-2-methyl-cyclopropyl}-3-methyl-penta-2E,4E-dienoic Acid]: the Ki at RARβ worked out at 9510 nM; on RARγ, 8910 nM; at RXRβ it was 1.5 nM. Also, the EC50 on RXRγ worked out at 0.42 nM. Further, the “RXR Trans. γ, number in parentheses after EC50” value (“RXR Trans. γ, number” below) on RXRγ stood at 101.

As to `CC(/C=C/[C@@H]1C[C@]1(C)c1cc(-c2ccc(F)cc2)c2c(c1)C(C)(C)CO2)=C\C(=O)O` [Compound 34, (E)-3-((E)-2-{(1S,2S)-2-[7-(4-Fluoro-phenyl)-3,3-dimethyl-2,3-dihydro-benzofuran-5-yl]-2-methyl-cyclopropyl}-vinyl)-but-2-enoic acid], the Ki on RARβ is 8750 nM; at RARγ, 25000 nM; on RXRβ it was 4 nM. Further, the EC50 on RXRγ was found to be 0.56 nM. Moreover, the “RXR Trans. γ, number” value at RXRγ was found to be 109.

For the compound `CC(/C=C/[C@@H]1C[C@]1(C)c1cc(-c2ccc(C(C)(C)C)cc2)c2c(c1)C(C)(C)CO2)=C\C(=O)O` [Compound 30, 5-{(1S, 2S)-2-[7-(4-tert-Butyl-phenyl)-3,3-dimethyl-2,3-dihydro-benzofuran-5-]-2-methyl-cyclopropyl}-3-methyl-pent-2E,4E-dienoic Acid], the figures for the Ki on RARβ, on RARγ and at RXRβ were more than 10000 nM, more than 10000 nM and 441 nM, respectively. Besides, the EC50 on RXRγ was more than 1000 nM. In addition, the “RXR Trans. γ, number” value at RXRγ was 80.

For the compound `CC(/C=C/[C@@H]1C[C@]1(C)c1cc(C(C)C)c2c(c1)C(C)(C)CO2)=C\C(=O)O` [Compound 8, (6S,7S)-7-[5-(3,3-Dimethyl-7-iso-propyl-2,3-dihydro-benzofuranyl)]-6,7-methano-3-methyl-octa-2E,4E-dienoic Acid], the results for the Ki on RARβ, at RARγ and on RXRβ were 41000 nM, 7510 nM and 10.6 nM, respectively. Further, at RXRγ, the EC50 turned out to be 0.23 nM. Moreover, the “RXR Trans. γ, number” value on RXRγ is reported as 108.

Turning to `CC(/C=C/[C@@H]1C[C@]1(C)c1cc(Cc2ccccc2)c2c(c1)C(C)(C)CO2)=C\C(=O)O` [Compound 14, (6S,7S)-7-[5-(7-Benzyl-3,3-dimethyl-2,3-dihydro-benzofuranyl)]-6,7-methano-3-methyl-octa-2E,4E-dienoic Acid], the figures for the inhibitory constant (Ki) on RARβ, on RARγ and on RXRβ were 4770 nM, 6650 nM and 1.1 nM, respectively. Also, the EC50 on RXRγ is 0.0973 nM. Further, the “RXR Trans. γ, number” value on RXRγ came out at 105.

With `CC(/C=C/[C@@H]1C[C@@H]1c1ccc2c(c1)C(C)(C)CO2)=C\C(=O)O` [Compound 36, (E)-3-{(E)-2-F[(1S,2S)-2-(3,3-Dimethyl-2,3-dihydro-benzofuran-5-yl)-cyclopropyl]-vinyl}-but-2-enoic acid], the Ki on RARβ was more than 10000 nM; at RARγ, more than 10000 nM; at RXRβ, 312 nM. At RXRγ, the EC50 was found to be 743 nM. The “RXR Trans. γ, number” value at RXRγ is recorded as 109.

For the compound `CCCCCCc1cc([C@@]2(C)C[C@H]2/C=C/C(C)=C/C(=O)O)cc2c1OCC2(C)C` [Compound 18, (6S,7S)-7-[5-(3,3-Dimethyl-7-hexyl-2,3-dihydro-benzofuranyl)]-6,7-methano-3-methyl-octa-2E,4E-dienoic acid], the Ki is 15000 nM at RARβ, 9260 nM on RARγ and 5.1 nM at RXRβ. Besides, the EC50 at RXRγ came to 0.36 nM. On RXRγ, the “RXR Trans. γ, number” value is reported as 99.

With `CC(/C=C/[C@@H]1C[C@]1(C)c1cc(-c2c(C)cccc2C)c2c(c1)C(C)(C)CO2)=C\C(=O)O` [Compound 24, 5-{(1 S 2S)-2-[7-(2,6-Dimethyl-phenyl)-3,3-dimethyl-2,3-dihydro-benzofuran-5-yl]-2-methyl-cyclopropyl}-3-methyl-penta-2E,4E-dienoic acid], the Ki is more than 10000 nM on RARβ, more than 10000 nM at RARγ and 2.6 nM at RXRβ. In addition, the EC50 on RXRγ stood at 0.86 nM. At RXRγ, the “RXR Trans. γ, number” value is 105.

For the compound `CC(/C=C/[C@@H]1C[C@]1(C)c1cc(CC2CCCCC2)c2c(c1)C(C)(C)CO2)=C\C(=O)O` [Compound 16, (6S,7S)-7-[5-(7-Cyclohexylmethyl-3,3-dimethyl-2,3-dihydro-benzofuranyl)]-6,7-methano-3-methyl-octa-2E,4E-dienoic Acid], the Ki at RARβ was 9290 nM; at RARγ it was 12000 nM; at RXRβ it was 1.9 nM. Further, the EC50 at RXRγ was 0.29 nM. The “RXR Trans. γ, number” value at RXRγ is 83.

With `CC(/C=C/[C@@H]1C[C@]1(C)c1cc(C(C)(C)C)c2c(c1)C(C)(C)CO2)=C\C(=O)O` [Compound 10, (6S,7S)-7-[5-(3,3-Dimethyl-7-t-butyl-2,3-dihydro-benzofuranyl)]-6,7-methano-3-methyl-octa-2E,4E-dienoic acid], the Ki on RARβ was found to be 19000 nM; on RARγ, 13000 nM; at RXRβ it was 7.1 nM. Besides, the EC50 at RXRγ was determined as 0.78 nM. Further, the “RXR Trans. γ, number” value at RXRγ is 95.

Regarding `CC(/C=C/[C@@H]1C[C@]1(C)c1cc(Br)c2c(c1)C(C)(C)CO2)=C\C(=O)O` [Compound 20, (6S,7S)-7-[5-(7-Bromo-3,3-dimethyl-2,3-dihydro-benzofuranyl)]-6,7-methano-3-methyl-octa-2E,4E-dienoic Acid], the Ki on RARβ is more than 10000 nM; on RARγ, more than 10000 nM; on RXRβ, 21.5 nM. Further, the EC50 on RXRγ came out at 3.4 nM. In addition, the “RXR Trans. γ, number” value on RXRγ is on record as 111.

Turning to `CCCCCCCc1ccccc1-c1cc([C@@]2(C)C[C@H]2/C=C/C(C)=C/C(=O)O)cc2c1OCC2(C)C` [Compound 28], the figures for the Ki at RARβ, on RARγ and at RXRβ were 3740 nM, 9540 nM and 111 nM, respectively. Further, at RXRγ, the EC50 is 850 nM. On RXRγ, the “RXR Trans. γ, number” value was determined as 88.

The values above are taken from US6720423B2, “Dihydrobenzofuran and dihydrobenzothiophene 2,4-pentadienoic acid derivatives having selective activity for retinoid X (RXR) receptors” (Allergan, Inc., priority 2002, dated 2004).
